Values quoted from earlier work as cited in PubChem BioAssay AID1259409 (Chemical Carcinogenesis Research Information System (CCRIS), 2018).

Tested on: rodent chemically induced tumor inhibition, incidence and multiplicity
Assay: CCRIS tumor inhibitor studies
Conditions: Carcinogen: DIETHYLNITROSAMINE, 55-18-5, N-METHYL-N-NITROSOUREA, 684-93-5, N-BUTYL-N-(4-HYDROXYBUTYL)NITROSAMINE, 3817-11-6, 1,2-DIM, Carcinogen: DIETHYLNITROSAMINE, 55-18-5, N-METHYL-N-NITROSOUREA, 684-93-5, N-BUTYL-N-(4-HYDROXYBUTYL)NITROSAMINE, 3817-11-6, 1,2-DIM, Dose [Inhibitor]: 0, 0.3% IN DIET FOR 23 WK BEGINNING 1 WK POST CARCINOGEN TREATMENT (STUDY DURATION: 28 WK), Route [Inhibitor]: ORAL, Species: RAT, Strain/Sex: F344/MALE, Dose [Carcinogen]: 100 MG/KG BW DEN ONCE, 20 MG/KG BW MNU ONCE ON DAYS 6,9, AND 12, 0.05% BBN IN DRINKING WATER FOR FIRST TWO WK, 40 MG/KG, Dose [Carcinogen]: 100 MG/KG BW DEN ONCE, 20 MG/KG BW MNU ONCE ON DAYS 6,9, AND 12, 0.05% BBN IN DRINKING WATER FOR FIRST TWO WK, 40 MG/KG, Promoter: NONE USED

## C[C@]12CC[C@H](O)CC1=CC[C@@H]1[C@@H]2CC[C@]2(C)C(=O)CC[C@@H]12
Target Tissue: Type of Lesion: LIVER: HEPATOCELLULAR ADENOMA, HYPERPLASTIC NODULES
  tumour outcome (control, treated, inhibition, significance): 2/20 (10%), 15/20 (75%), -650%, p<0.01
Target Tissue: Type of Lesion: LUNG: ADENOCARCINOMA
  tumour outcome (control, treated, inhibition, significance): 1/20 (5%), 0/20 (0%), 100%, not significant
Target Tissue: Type of Lesion: LUNG: ADENOMA
  tumour outcome (control, treated, inhibition, significance): 8/20 (40%), 5/20 (25%), 38%, not significant
Target Tissue: Type of Lesion: SMALL INTESTINE: ADENOCARCINOMA
  outcome: 2/20 (10%), 0/20 (o%), 100%, not significant
Target Tissue: Type of Lesion: SMALL INTESTINE: ADENOMA
  tumour outcome (control, treated, inhibition, significance): 5/20 (25%), 2/20 (10%), 60%, not significant
Target Tissue: Type of Lesion: THYROID: FOLLICULAR ADENOMA
  tumour outcome (control, treated, inhibition, significance): 6/20 (30%), 1/20 (5%), 83%, p<0.05
Target Tissue: Type of Lesion: THYROID: FOLLICULAR CARCINOMA
  tumour outcome (control, treated, inhibition, significance): 1/20 (5%), 2/20 (10%), -100%, not significant
